For ten compounds, IC50 results are on record in US20210038607A1, “OXADIAZOLYLTHIOPHENE DERIVATIVES USEFUL AS HISTONE DEACETYLASE INHIBITORS” (Karus Therapeutics Limited, priority 2018, published 2021).

A value given as a limit tells only on which side of the number the result lay.

In one assay the target is T1, Human HDAC1 (Homo sapiens, UniProt Q13547).
T1 construct: full length with C-terminal His-tag and C-terminal FLAG-tag; His (C); FLAG (C); host or cells: baculovirus expression system
The experiment in a line: HDAC1 biochemical assay, AMC-labeled peptide substrate. The conditions noted are these: read-out: HDAC Isoform IC50 (nM) 1. In a few lines: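 Two-step fluorogenic read: HDAC1 deacetylates 50 μM acetyl-lysine AMC peptide RHKK(Ac)AMC for 1 h at 30° C (pH 8.0, 1% DMSO, with compound), then developer digests the product for fluorescence at Ex/Em 360/460. Enzyme is full-length human, His/FLAG-tagged, insect-cell expressed, at 0.3 ng/ul.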

The target in a further assay is T2, Human HDAC4 (Homo sapiens, UniProt P56524).
T2 construct: amino acids 627-1085 with N-terminal GST tag; GST (N); host or cells: baculovirus expression system
The experiment in a line: HDAC4 biochemical assay, class IIa-specific substrate. The settings on record: read-out: HDAC Isoform IC50 (nM) 4. In a few lines: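 Two-step fluorogenic read-out: deacetylated BOC-Lys(trifluoroacetyl)-AMC (50 μM) was digested by developer and measured at Ex/Em 360/460. Deacetylation by 0.004 ng/ul HDAC4 (aa 627-1085, N-terminal GST) ran 30 min at room temperature, pH 8.0 Tris buffer, 1 mg/mL BSA, 1% DMSO.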

The target in another assay is T3, Human HDAC5 (Homo sapiens, UniProt Q9UQL6).
T3 construct: full length with C-terminal His tag, MW=51.1 kDa; His (C); host or cells: baculovirus expression system
Description: HDAC5 biochemical assay, class IIa-specific substrate. The conditions noted are these: read-out: HDAC Isoform IC50 (nM) 5. In a few lines:
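Two-step fluorogenic read-out: deacetylated trifluoroacetyl-lysine AMC substrate (50 μM) digested by developer, measured at Ex/Em 360/460. Deacetylation step: 0.05 ng/ul His-tagged full-length baculoviral enzyme with compound, 30 min, room temperature, pH 8.0 Tris with 1 mg/mL BSA and 1% DMSO.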

Another assay addresses T4, Recombinant human HDAC6 (Homo sapiens, UniProt Q9UBN7).
T4 construct: full length, MW=159 kDa; GST (N); host or cells: Sf9 insect cells (baculovirus)
T4 sequence (Q9UBN7 1-1215): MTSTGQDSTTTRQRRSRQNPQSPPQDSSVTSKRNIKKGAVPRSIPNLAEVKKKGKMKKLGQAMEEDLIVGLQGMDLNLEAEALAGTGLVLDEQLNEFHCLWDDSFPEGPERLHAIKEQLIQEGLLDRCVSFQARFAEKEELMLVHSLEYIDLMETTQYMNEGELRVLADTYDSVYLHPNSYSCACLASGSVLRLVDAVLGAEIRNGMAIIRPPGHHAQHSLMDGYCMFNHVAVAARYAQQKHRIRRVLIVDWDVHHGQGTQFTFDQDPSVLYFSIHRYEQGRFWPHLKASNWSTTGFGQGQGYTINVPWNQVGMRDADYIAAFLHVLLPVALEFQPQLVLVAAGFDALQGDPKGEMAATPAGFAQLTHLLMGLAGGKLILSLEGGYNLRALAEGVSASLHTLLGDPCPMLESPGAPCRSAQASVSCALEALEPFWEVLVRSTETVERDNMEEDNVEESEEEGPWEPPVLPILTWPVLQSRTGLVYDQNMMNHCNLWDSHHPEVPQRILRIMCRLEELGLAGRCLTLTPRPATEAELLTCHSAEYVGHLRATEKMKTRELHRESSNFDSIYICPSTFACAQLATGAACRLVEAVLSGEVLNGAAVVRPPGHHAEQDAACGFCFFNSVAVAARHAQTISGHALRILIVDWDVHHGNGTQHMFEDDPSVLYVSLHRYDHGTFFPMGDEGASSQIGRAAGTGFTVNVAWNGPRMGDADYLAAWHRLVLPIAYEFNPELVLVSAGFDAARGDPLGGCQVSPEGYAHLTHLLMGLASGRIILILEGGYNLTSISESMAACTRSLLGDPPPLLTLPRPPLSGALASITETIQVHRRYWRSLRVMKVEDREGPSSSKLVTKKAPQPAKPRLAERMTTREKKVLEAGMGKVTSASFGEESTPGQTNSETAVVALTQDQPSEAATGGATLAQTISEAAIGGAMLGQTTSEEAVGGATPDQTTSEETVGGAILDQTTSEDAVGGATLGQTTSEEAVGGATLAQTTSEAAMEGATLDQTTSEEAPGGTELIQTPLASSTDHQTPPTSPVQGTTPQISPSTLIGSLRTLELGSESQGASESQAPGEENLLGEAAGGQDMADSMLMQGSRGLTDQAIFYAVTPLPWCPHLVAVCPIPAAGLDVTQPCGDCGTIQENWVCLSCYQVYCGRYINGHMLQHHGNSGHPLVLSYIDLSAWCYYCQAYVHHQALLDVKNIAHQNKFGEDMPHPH
Description: HDAC6 biochemical assay, AMC-labeled peptide substrate. The settings on record: HDAC6; read-out: HDAC Isoform IC50 (nM) 6. In a few lines:
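Two-step fluorogenic read-out: enzyme deacetylates 50 μM RHKK(Ac)AMC for 1 h at 30° C in pH 8.0 Tris buffer with BSA and 1% DMSO, then developer cleavage gives signal at Ex 360/Em 460. Enzyme: 0.3 ng/ul recombinant full-length human HDAC6, GST-tagged, Sf9-expressed.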

The next assay has as its target T5, Human HDAC7 (Homo sapiens, UniProt Q8WUI4).
T5 construct: (a.a. 518-end) with N-terminal GST tag; GST (N); host or cells: baculovirus expression system
T5 sequence (Q8WUI4 518-952 limits assumed): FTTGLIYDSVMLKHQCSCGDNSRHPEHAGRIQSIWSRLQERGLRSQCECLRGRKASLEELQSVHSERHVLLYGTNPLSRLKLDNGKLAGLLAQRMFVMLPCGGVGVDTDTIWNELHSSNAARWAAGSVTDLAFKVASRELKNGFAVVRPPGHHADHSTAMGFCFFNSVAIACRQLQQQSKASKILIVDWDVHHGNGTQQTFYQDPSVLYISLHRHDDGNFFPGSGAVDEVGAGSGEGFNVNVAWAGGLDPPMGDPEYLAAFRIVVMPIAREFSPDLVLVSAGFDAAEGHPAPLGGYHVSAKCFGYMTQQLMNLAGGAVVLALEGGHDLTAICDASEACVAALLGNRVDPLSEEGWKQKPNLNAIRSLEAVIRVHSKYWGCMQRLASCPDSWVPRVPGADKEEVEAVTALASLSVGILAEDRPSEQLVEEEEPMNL
The experiment in a line: HDAC7 biochemical assay, class IIa-specific substrate. The conditions noted are these: read-out: HDAC Isoform IC50 (nM) 7. In a few lines:
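Two-step fluorogenic readout: class IIa-selective trifluoroacetyl-lysine AMC substrate (50 μM) deacetylated by N-terminal GST-HDAC7 fragment (0.001 ng/ul), then digested by developer, Ex/Em 360/460. Reaction: 30 min, room temperature, Tris-HCl pH 8.0, NaCl/KCl/MgCl2, 1 mg/mL BSA, 1% DMSO.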

The next assay deals with T6, Human HDAC9 (Homo sapiens, UniProt Q9UKV0).
T6 construct: amino acids 604-1066 with C-terminal His tag; His (C); host or cells: baculovirus expression system
Description: HDAC9 biochemical assay, class IIa-specific substrate. The settings on record: read-out: HDAC Isoform IC50 (nM) 9. In a few lines: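 HDAC9 residues 604-1066 (C-terminal His tag, baculovirus-expressed) at 0.06 ng/ul with 50 μM class IIa substrate Boc-Lys(trifluoroacetyl)-AMC in Tris-HCl pH 8.0 buffer with BSA and 1% DMSO. 30 min at room temperature, then developer added; fluorescence read at 360/460 nm Ex/Em.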

T2 sequence (P56524 627-1084 limits assumed): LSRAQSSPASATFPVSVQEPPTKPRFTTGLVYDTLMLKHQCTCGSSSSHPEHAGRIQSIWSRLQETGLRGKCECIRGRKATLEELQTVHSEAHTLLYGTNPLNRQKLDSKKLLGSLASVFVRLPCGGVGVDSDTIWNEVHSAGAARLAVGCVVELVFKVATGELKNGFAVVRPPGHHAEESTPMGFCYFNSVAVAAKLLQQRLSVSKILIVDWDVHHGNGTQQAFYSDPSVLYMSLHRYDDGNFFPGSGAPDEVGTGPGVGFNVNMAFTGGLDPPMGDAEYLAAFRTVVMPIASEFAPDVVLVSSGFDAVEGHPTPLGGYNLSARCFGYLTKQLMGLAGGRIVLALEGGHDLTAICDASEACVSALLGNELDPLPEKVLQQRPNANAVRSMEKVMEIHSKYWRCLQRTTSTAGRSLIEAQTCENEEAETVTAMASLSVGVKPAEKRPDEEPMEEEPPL
T1 sequence (Q13547 whole entry): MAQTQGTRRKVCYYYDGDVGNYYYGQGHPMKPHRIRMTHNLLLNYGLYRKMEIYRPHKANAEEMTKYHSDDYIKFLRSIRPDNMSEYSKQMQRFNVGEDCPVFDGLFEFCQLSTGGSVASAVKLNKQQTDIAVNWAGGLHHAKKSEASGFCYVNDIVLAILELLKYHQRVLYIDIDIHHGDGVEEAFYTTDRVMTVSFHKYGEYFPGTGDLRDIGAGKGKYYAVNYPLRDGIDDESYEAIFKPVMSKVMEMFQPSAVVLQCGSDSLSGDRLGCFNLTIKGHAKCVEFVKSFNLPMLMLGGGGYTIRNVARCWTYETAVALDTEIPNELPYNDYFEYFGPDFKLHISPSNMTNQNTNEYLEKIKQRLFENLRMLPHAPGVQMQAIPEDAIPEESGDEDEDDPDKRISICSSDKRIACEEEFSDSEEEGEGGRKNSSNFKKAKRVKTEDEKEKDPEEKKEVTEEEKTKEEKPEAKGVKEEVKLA
T3 sequence (Q9UQL6 656-1122 limits assumed): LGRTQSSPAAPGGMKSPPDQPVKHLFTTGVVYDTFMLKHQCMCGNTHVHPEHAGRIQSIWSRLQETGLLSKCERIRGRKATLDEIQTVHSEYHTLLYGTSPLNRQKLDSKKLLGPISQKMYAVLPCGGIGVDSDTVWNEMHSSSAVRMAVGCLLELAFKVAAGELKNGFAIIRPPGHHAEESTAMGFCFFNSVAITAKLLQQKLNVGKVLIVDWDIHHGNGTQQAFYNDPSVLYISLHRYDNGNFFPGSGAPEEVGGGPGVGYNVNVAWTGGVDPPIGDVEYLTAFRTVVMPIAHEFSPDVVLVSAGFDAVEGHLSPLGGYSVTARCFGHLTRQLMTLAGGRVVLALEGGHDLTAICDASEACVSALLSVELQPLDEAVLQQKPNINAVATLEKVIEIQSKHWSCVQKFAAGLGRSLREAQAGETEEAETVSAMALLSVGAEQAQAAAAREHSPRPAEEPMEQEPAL
T6 sequence (Q9UKV0 604-1066 isoform Q9UKV0-5): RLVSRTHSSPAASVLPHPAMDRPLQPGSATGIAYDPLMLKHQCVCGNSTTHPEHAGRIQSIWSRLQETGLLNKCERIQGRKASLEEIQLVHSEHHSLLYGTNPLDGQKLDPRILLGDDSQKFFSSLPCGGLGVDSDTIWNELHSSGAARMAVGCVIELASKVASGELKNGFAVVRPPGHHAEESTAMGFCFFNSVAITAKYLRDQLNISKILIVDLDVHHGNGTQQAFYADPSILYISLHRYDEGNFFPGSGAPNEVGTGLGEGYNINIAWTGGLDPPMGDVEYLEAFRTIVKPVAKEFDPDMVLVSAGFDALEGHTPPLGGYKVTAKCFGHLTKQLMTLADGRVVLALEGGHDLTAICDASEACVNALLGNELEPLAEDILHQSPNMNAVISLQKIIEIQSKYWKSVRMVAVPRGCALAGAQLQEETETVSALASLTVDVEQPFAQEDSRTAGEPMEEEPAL

The term IC50 denotes the midpoint of a concentration-inhibition curve. For the compound `CC(c1ccc(-c2noc(C(F)(F)F)n2)s1)N(c1cnccn1)c1cnccn1` (stereo not drawn) [Example BB, N-(Pyrazin-2-yl)-N-(1-{5-[5-(trifluoromethyl)-1,2,4-oxadiazol-3-yl]thiophen-2-yl}ethyl)pyrazin-2-amine], the half-maximal inhibitory concentration (IC50) is greater than 10000 nM on Human HDAC1; no more than 500 nM at Human HDAC4; no more than 500 nM at Human HDAC5; no more than 10000 nM on Recombinant human HDAC6; no more than 1000 nM at Human HDAC7; no more than 10000 nM at Human HDAC9.

Consider `COCc1nccnc1N(Cc1ccc(-c2noc(C(F)(F)F)n2)s1)c1cnccn1` [Example BG, 3-(Methoxymethyl)-N-(pyrazin-2-yl)-N-({5-[5-(trifluoromethyl)-1,2,4-oxadiazol-3-yl]thiophen-2-yl}methyl)pyrazin-2-amine], for which the IC50 on Human HDAC1 was greater than 10000 nM; at Human HDAC4 it was no more than 10000 nM; at Human HDAC5, no more than 1000 nM; on Recombinant human HDAC6, no more than 1000 nM; on Human HDAC7, no more than 10000 nM; at Human HDAC9, no more than 10000 nM.

With `FC(F)(F)c1nc(-c2ccc(CN(c3cnccn3)c3cnc(-c4ccco4)cn3)s2)no1` [Example BJ, 5-(Furan-2-yl)-N-(pyrazin-2-yl)-N-({5-[5-(trifluoromethyl)-1,2,4-oxadiazol-3-yl]thiophen-2-yl}methyl)pyrazin-2-amine], the IC50 at Human HDAC1 was no more than 10000 nM; on Human HDAC4 it was no more than 1000 nM; on Human HDAC5, no more than 10000 nM; at Recombinant human HDAC6, no more than 10000 nM; at Human HDAC7 it was no more than 10000 nM; on Human HDAC9, no more than 10000 nM.

In the case of `CS(=O)(=O)c1cnc(N(Cc2ccc(-c3noc(C(F)(F)F)n3)s2)c2cnccn2)cn1` [Example BL, 5-Methanesulfonyl-N-(pyrazin-2-yl)-N-({5-[5-(trifluoromethyl)-1,2,4-oxadiazol-3-yl]thiophen-2-yl}methyl)pyrazin-2-amine], the 50% inhibitory concentration (IC50) on Human HDAC1 is greater than 10000 nM; at Human HDAC4, no more than 1000 nM; at Human HDAC5, no more than 1000 nM; on Recombinant human HDAC6 it was no more than 10000 nM; on Human HDAC7 it was no more than 1000 nM; at Human HDAC9, no more than 10000 nM.

Turning to `FC(F)(F)c1nc(-c2ccc(CN(c3cnccn3)c3cnc4[nH]ccc4n3)s2)no1` [Example BN, N-{5H-Pyrrolo[2,3-b]pyrazin-2-yl}-N-({5-[5-(trifluoromethyl)-1,2,4-oxadiazol-3-yl]thiophen-2-yl}methyl)pyrazin-2-amine], the IC50 on Human HDAC1 was greater than 10000 nM; at Human HDAC4, no more than 500 nM; at Human HDAC5, no more than 500 nM; on Recombinant human HDAC6 it was no more than 1000 nM; on Human HDAC7, no more than 500 nM; on Human HDAC9, no more than 500 nM.

On to `Cn1ccc2nc(N(Cc3ccc(-c4noc(C(F)(F)F)n4)s3)c3cnccn3)cnc21` [Example BO, N-{5-Methyl-5H-pyrrolo[2,3-b]pyrazin-2-yl}-N-({5-[5-(trifluoromethyl)-1,2,4-oxadiazol-3-yl]thiophen-2-yl}methyl)pyrazin-2-amine], for which the half-inhibitory concentration (IC50) on Human HDAC1 is greater than 10000 nM; on Human HDAC4, no more than 10000 nM; at Human HDAC5, no more than 10000 nM; at Recombinant human HDAC6 it was no more than 10000 nM; on Human HDAC7, no more than 10000 nM; on Human HDAC9, no more than 10000 nM.

Take `CN(C)C(=O)c1cncc(N(Cc2ccc(-c3noc(C(F)(F)F)n3)s2)c2cnccn2)n1` [Example BS, N,N-Dimethyl-6-[(pyrazin-2-yl)({5-[5-(trifluoromethyl)-1,2,4-oxadiazol-3-yl]thiophen-2-yl}methyl)amino]pyrazine-2-carboxamide]: the IC50 at Human HDAC1 was greater than 10000 nM; at Human HDAC4, no more than 10000 nM; at Human HDAC5 it was no more than 10000 nM; at Recombinant human HDAC6, no more than 10000 nM; at Human HDAC7, no more than 10000 nM; on Human HDAC9 it was no more than 10000 nM.

Consider `Cc1ncc(N(Cc2ccc(-c3noc(C(F)(F)F)n3)s2)c2cnccn2)nc1C` [Example BT, 5,6-Dimethyl-N-(pyrazin-2-yl)-N-({5-[5-(trifluoromethyl)-1,2,4-oxadiazol-3-yl]thiophen-2-yl}methyl)pyrazin-2-amine], for which the IC50 is greater than 10000 nM on Human HDAC1; no more than 10000 nM on Human HDAC4; no more than 10000 nM at Human HDAC5; no more than 10000 nM on Recombinant human HDAC6; no more than 10000 nM at Human HDAC7; no more than 10000 nM on Human HDAC9.

In the case of `Cc1cnc(C)c(N(Cc2ccc(-c3noc(C(F)(F)F)n3)s2)c2cnccn2)n1` [Example BU, 3,6-Dimethyl-N-(pyrazin-2-yl)-N-({5-[5-(trifluoromethyl)-1,2,4-oxadiazol-3-yl]thiophen-2-yl}methyl)pyrazin-2-amine], the 50% inhibitory concentration (IC50) at Human HDAC1 was greater than 10000 nM; at Human HDAC4, no more than 500 nM; on Human HDAC5, no more than 500 nM; on Recombinant human HDAC6 it was no more than 10000 nM; on Human HDAC7, no more than 1000 nM; on Human HDAC9 it was no more than 1000 nM.

For the compound `Cc1cnc(N(Cc2ccc(-c3noc(C(F)(F)F)n3)s2)c2cnccn2)c(C)n1` [Example BV, 3,5-Dimethyl-N-(pyrazin-2-yl)-N-({5-[5-(trifluoromethyl)-1,2,4-oxadiazol-3-yl]thiophen-2-yl}methyl)pyrazin-2-amine], the IC50 on Human HDAC1 is greater than 10000 nM; on Human HDAC4, no more than 500 nM; at Human HDAC5 it was no more than 500 nM; on Recombinant human HDAC6, no more than 10000 nM; on Human HDAC7, no more than 1000 nM; at Human HDAC9, no more than 1000 nM.
